Values quoted from earlier work, collected in paper PMC12009570 (International Journal of Nanomedicine, 2025).

Tests used:
[1] = not given; remark: listed apart in the source

Structure (SMILES): Cl.O=C1[C@@H]2[C@H]3CC[C@H](C3)[C@@H]2C(=O)N1C[C@@H]1CCCC[C@H]1CN1CCN(c2nsc3ccccc23)CC1 [LSD, Lurasidone hydrochloride]
- oral bioavailability (conventional tablets, oral): 9–19%
- AUC, times higher than in the fasted state (food effect): 2 times
- Cmax, times higher than in the fasted state (food effect): 3 times
- pH at which most soluble [1]: 3.8
